Reference: PMC8286840, “Identifying SARS-CoV-2 antiviral compounds by screening for small molecule inhibitors of Nsp3 papain-like protease” (Biochemical Journal, 2021)
Structures can show the parent of a compound that is named as a salt. Where two headings read alike, the source gives them in different places. Where a SMILES comes first, the peptide text is derived from it. The star is where a group is joined. Cbz = O=C(OCc1ccccc1)*; CH2F = FC*

How the values were obtained:
[1] = target: T1, SARS-CoV-2 PLpro (nsp3 1564–1878) (Severe acute respiratory syndrome coronavirus 2, UniProt P0DTD1); experiment: biochemical; set-up: FRET-quenched peptide (Pro3) cleavage by PLpro, 10 min pre-incubation, slope over 20 min, normalised to no-compound control; details: high concentration screen, read-out: % of control remaining
[2] = target: T1, SARS-CoV-2 PLpro (nsp3 1564–1878); experiment: biochemical; set-up: FRET-quenched peptide (Pro3) cleavage by PLpro, 10 min pre-incubation, slope over 20 min, normalised to no-compound control; details: low concentration screen, read-out: % of control remaining

## C[C@]12CCC3=C4CCC(=O)C=C4CC[C@H]3[C@@H]1CC[C@@]2(O)CC#N [Dienogest]
[1]; Well no.=5145
  remaining activity at 3.75 µM: 102%
[2]; Well no.=5145
  remaining activity at 1.25 µM: 102%

## O=C1Nc2ccc(I)cc2/C1=C/c1cc(Br)c(O)c(Br)c1 [GW5074]
[1]; Well no.=525
  remaining activity at 3.75 µM: 96.1%
[2]; Well no.=525
  remaining activity at 1.25 µM: 97.2%

## CC[C@H](CO)Nc1nc(NCc2ccccc2O)c2ncn(C(C)C)c2n1 [Olomoucine II]
[1]; Well no.=2523
  remaining activity at 3.75 µM: 102%
[2]; Well no.=2523
  remaining activity at 1.25 µM: 99.8%

## CNNCc1ccc(C(=O)NC(C)C)cc1 [Procarbazine]
[1]; Well no.=2145
  remaining activity at 3.75 µM: 105%
[2]; Well no.=2145
  remaining activity at 1.25 µM: 104%

## COC(=O)[C@@H]1[C@H]2C[C@H]3c4[nH]c5ccccc5c4CCN3C[C@@H]2CC[C@@H]1O [Yohimbine (Hydrochloride)]
[1]; Well no.=8337
  remaining activity at 3.75 µM: 97.4%
[2]; Well no.=8337
  remaining activity at 1.25 µM: 103%

## CCCCCCCCOC(=O)/C=C/c1ccc(O)c(O)c1 [n-Octyl caffeate]
[1]; Well no.=4043
  remaining activity at 3.75 µM: 95.8%
[2]; Well no.=4043
  remaining activity at 1.25 µM: 93.2%

## CCCCC[C@@H](/C=C/C=C\C/C=C\C/C=C\CCCC(=O)O)OO [15(S)-HPETE]
[1]; Well no.=4331
  remaining activity at 3.75 µM: 98.7%
[2]; Well no.=4331
  remaining activity at 1.25 µM: 99.3%

## COc1ccc2cccc(CCNC(C)=O)c2c1 [Agomelatine]
[1]; Well no.=5143
  remaining activity at 3.75 µM: 100%
[1]; Well no.=7340
  remaining activity at 3.75 µM: 102%
[2]; Well no.=5143
  remaining activity at 1.25 µM: 100%
[2]; Well no.=7340
  remaining activity at 1.25 µM: 99.9%

## O=C1CC(c2c[nH]c3ccc(F)cc23)C(=O)N1 (stereo not shown) [PF-06840003]
[1]; Well no.=8215
  remaining activity at 3.75 µM: 101%
[2]; Well no.=8215
  remaining activity at 1.25 µM: 104%

## CCCCC#Cc1nc(N)c2ncn([C@@H]3O[C@H](C(=O)NCC)[C@@H](O)[C@H]3O)c2n1 [HE-NECA]
[1]; Well no.=756
  remaining activity at 3.75 µM: 98.5%
[2]; Well no.=756
  remaining activity at 1.25 µM: 97%

## O=C(/C=C/c1ccc(O)cc1)c1ccc(O)cc1O [Isoliquiritigenin]
[1]; Well no.=963
  remaining activity at 3.75 µM: 101%
[2]; Well no.=963
  remaining activity at 1.25 µM: 99.7%

## C=C1[C@@H](C)[C@H]2[C@H](Cc3ccccc3)NC(=O)[C@]23OC(=O)/C=C/[C@H](O)CCC[C@@H](C)C/C=C/[C@H]3[C@@H]1O [Cytochalasin B]
[1]; Well no.=3189
  remaining activity at 3.75 µM: 98.1%
[2]; Well no.=3189
  remaining activity at 1.25 µM: 98%

## C[N+](C)(C)CCOC(N)=O [Carbamylcholine]
[1]; Well no.=1734
  remaining activity at 3.75 µM: 102%
[2]; Well no.=1734
  remaining activity at 1.25 µM: 99.8%

## Cc1nn(C)c2nc(NNC(=O)Nc3cc(Cl)nc(Cl)c3)cc(C(C)C)c12 [N-(2,6-dichloro-4-pyridinyl)-2-(4-isopropyl-1,3-dimethyl-1H-pyrazolo[3,4-b]pyridin-6-yl)hydrazinecarboxamide]
[1]; Well no.=5923
  remaining activity at 3.75 µM: 100%
[2]; Well no.=5923
  remaining activity at 1.25 µM: 104%

## CNC(=O)[C@H]1O[C@@H](n2cnc3c(NCc4cccc(I)c4)nc(Cl)nc32)[C@H](O)[C@@H]1O [Chloro-IB-MECA]
[1]; Well no.=395
  remaining activity at 3.75 µM: 95.2%
[2]; Well no.=395
  remaining activity at 1.25 µM: 95.2%

## Clc1cc(I)cc(Cl)c1NC1=NCCN1 [p-Iodoclonidine hydrochloride]
[1]; Well no.=873
  remaining activity at 3.75 µM: 113%
[2]; Well no.=873
  remaining activity at 1.25 µM: 110%

## O=C(O)CN(CCN(CC(=O)O)CC(=O)O)CCN(CC(=O)O)CC(=O)O [Diethylenetriaminepentaacetic acid]
[1]; Well no.=532
  remaining activity at 3.75 µM: 97.9%
[2]; Well no.=532
  remaining activity at 1.25 µM: 100%

## Cc1nnc(C(C)C)n1[C@@H]1C[C@H]2CC[C@@H](C1)N2CC[C@H](NC(=O)C1CCC(F)(F)CC1)c1ccccc1 [Maraviroc]
[1]; Well no.=4678
  remaining activity at 3.75 µM: 100%
[1]; Well no.=8691
  remaining activity at 3.75 µM: 102%
[2]; Well no.=4678
  remaining activity at 1.25 µM: 103%
[2]; Well no.=8691
  remaining activity at 1.25 µM: 101%

## N[C@H](CCC(=O)NCS(=O)(=O)O)C(=O)O [gamma-D-Glutamylaminomethylsulfonic acid]
[1]; Well no.=652
  remaining activity at 3.75 µM: 94%
[2]; Well no.=652
  remaining activity at 1.25 µM: 92.4%

## Cc1cc(OCCCc2c3n(c4c(-c5c(C)nn(C)c5C)c(Cl)ccc24)[C@H](C)CN(c2cn(C)c4ccc(C(=O)O)cc24)C3=O)cc(C)c1Cl [VU0661013]
[1]; Well no.=7066
  remaining activity at 3.75 µM: 98.3%
[2]; Well no.=7066
  remaining activity at 1.25 µM: 105%

## CC(=O)N[C@@H](CC(C)C)C(=O)O [N-Acetyl-L-leucine]
[1]; Well no.=7596
  remaining activity at 3.75 µM: 98.8%
[2]; Well no.=7596
  remaining activity at 1.25 µM: 97%

## CCOCc1nc2c(N)nc3ccccc3c2n1CC(C)(C)O [Resiquimod]
[1]; Well no.=5488
  remaining activity at 3.75 µM: 107%
[1]; Well no.=8499
  remaining activity at 3.75 µM: 106%
[2]; Well no.=5488
  remaining activity at 1.25 µM: 107%
[2]; Well no.=8499
  remaining activity at 1.25 µM: 102%

## Cc1c(-c2ccc(O)cc2)n(Cc2ccc(OCCN3CCCCCC3)cc2)c2ccc(O)cc12 [Bazedoxifene HCl]
[1]; Well no.=5100
  remaining activity at 3.75 µM: 105%
[2]; Well no.=5100
  remaining activity at 1.25 µM: 105%

## CC[C@H](C)[C@H](NC(=O)OCc1ccccc1)C(=O)N[C@@H](CCC(=O)OC)C(=O)N[C@H](C(=O)N[C@@H](CC(=O)OC)C(=O)CF)[C@@H](C)O [Z-IETD-FMK] (Cbz-IE(OMe)TD(OMe)-CH2F)
[1]; Well no.=8262
  remaining activity at 3.75 µM: 96.2%
[2]; Well no.=8262
  remaining activity at 1.25 µM: 98.1%

## CSc1ccc2c(c1)N(CCC1CCCCN1C)c1ccccc1S2 (stereo not shown) [Thioridazine hydrochloride]
[1]; Well no.=1422
  remaining activity at 3.75 µM: 95.6%
[2]; Well no.=1422
  remaining activity at 1.25 µM: 96.4%

## C/C=C1\C[C@@H](C)[C@](O)(CO)C(=O)OCC2=CCN3CC[C@@H](OC1=O)[C@@H]23 [Retrorsine]
[1]; Well no.=3298
  remaining activity at 3.75 µM: 104%
[2]; Well no.=3298
  remaining activity at 1.25 µM: 99.9%

## C/C=C(\C)C(=O)N[C@@H](c1ccccc1)[C@@H](O)C(=O)O[C@H]1C[C@@]2(O)[C@@H](OC(=O)c3ccccc3)[C@@H]3[C@]4(OC(C)=O)CO[C@@H]4C[C@H](O)[C@@]3(C)C(=O)[C@H](OC(C)=O)C(=C1C)C2(C)C [Cephalomannine]
[1]; Well no.=5204
  remaining activity at 3.75 µM: 99.1%
[2]; Well no.=5204
  remaining activity at 1.25 µM: 97.2%

## O=C(CCCN1CCC(O)(c2cccc(C(F)(F)F)c2)CC1)c1ccc(F)cc1 [Trifluperidol hydrochloride]
[1]; Well no.=1376
  remaining activity at 3.75 µM: 94.4%
[2]; Well no.=1376
  remaining activity at 1.25 µM: 96.4%

## CCN(CC)C(=O)[C@]1(c2ccccc2)C[C@@H]1CN (racemic) [Milnacipran HCl]
[1]; Well no.=4977
  remaining activity at 3.75 µM: 101%
[2]; Well no.=4977
  remaining activity at 1.25 µM: 102%

## COc1ccc2c(c1O)-c1c(OC)c(OC)cc3c1[C@H](C2)N(C)CC3 [(+)-Isocorydine hydrochloride]
[1]; Well no.=3244
  remaining activity at 3.75 µM: 95.5%
[2]; Well no.=3244
  remaining activity at 1.25 µM: 93.2%

## O=C1NC(=O)C(Cc2ccc3cc(OCc4ccccc4F)ccc3c2)S1 (stereo not shown) [5-({6-[(2-fluorobenzyl)oxy]-2-naphthyl}methyl)-1,3-thiazolidine-2,4-dione]
[1]; Well no.=5872
  remaining activity at 3.75 µM: 97.8%
[2]; Well no.=5872
  remaining activity at 1.25 µM: 104%

## N[C@@H](C(=O)N[C@@H]1C(=O)N2C(C(=O)O)=C(Cl)CS[C@H]12)c1ccccc1 [Cefaclor]
[1]; Well no.=88
  remaining activity at 3.75 µM: 101%
[2]; Well no.=88
  remaining activity at 1.25 µM: 99.7%
